Earlier results in US20070015279A1, “Methods of Selecting Pancreatic Endocrine Cells Using Protein Synthesis Inhibitors” (AmCyte Inc., priority 2005, published 2007).

Key:
RbbA = conditions: control antibiotic; cited from earlier work
[1] = tested on: 70S ribosome-associated ATPase activity; conditions: cited from earlier work
cells = conditions: cited from earlier work
30S ribosomal subunit = conditions: cited from earlier work

Molecule	RbbA released, relative to the amount hygromycin B releases (RbbA)	inhibition of the ATPase activity of ribosomes compared to that of hygromycin B [1]	IC50, viable cell number (cells)	reduction of the rate of 30S formation compared with control cells (30S ribosomal subunit; 3 μg/mL)	IC50 for 30S particle formation (30S ribosomal subunit)
[H]/N=C(/N)N[C@H]1[C@H](O)[C@@H](O)[C@H](O[C@@H]2O[C@@H](C)[C@](O)(C=O)[C@H]2O[C@@H]2O[C@@H](CO)[C@H](O)[C@@H](O)[C@@H]2NC)[C@@H](N/C(N)=N\[H])[C@@H]1O [Streptomycin, streptomycin]	about 25%	about 20%	–	–	–
neomycin	–	–	2 µg/mL	about 80%	equal to the IC50 for inhibition of translation
